{"source": "patent EP0066406A1", "about": "“Beta-lactam antibiotics” (BEECHAM GROUP PLC, priority 1981, dated 1982)", "assay_in_all_cases": "MIC determination (agar/broth)", "type_in_all_cases": "cell-based", "key": {"[1]": {"test_system": "E. coli ESS", "conditions": "Escherichia coli, AGAR"}, "[2]": {"test_system": "P. morganii", "conditions": "Morganella morganii, AGAR"}, "[3]": {"test_system": "S. aureus Russell"}, "[4]": {"test_system": "B. subtilis", "conditions": "Bacillus subtilis, AGAR"}, "[5]": {"test_system": "K. aerogenes A", "conditions": "Klebsiella aerogenes"}, "[6]": {"test_system": "S. pyogenes CN 10", "conditions": "Streptococcus pyogenes, CN10, AGAR"}, "[7]": {"test_system": "E. coli JT 4", "conditions": "Escherichia coli, JT4, AGAR"}, "[8]": {"test_system": "N. catarrhalis 1502", "conditions": "AGAR"}, "[9]": {"test_system": "E. cloacae N1", "conditions": "Enterobacter cloacae, AGAR"}, "[10]": {"test_system": "P. mirabilis C 977", "conditions": "Proteus mirabilis, C977, AGAR"}, "[11]": {"test_system": "S. faecalis I", "conditions": "Enterococcus faecalis, AGAR"}, "[12]": {"test_system": "P. mirabilis 889", "conditions": "Proteus mirabilis, AGAR"}, "[13]": {"test_system": "Ps. aeruginosa NCTC 10662", "conditions": "Pseudomonas aeruginosa"}, "[14]": {"test_system": "Ps. aeruginosa Dalgleish", "conditions": "Pseudomonas aeruginosa; AGAR; Ps. aeruginosa Dalgleish 10^-2"}, "[15]": {"test_system": "S. aureus Oxford"}, "[16]": {"test_system": "S. marcescens US 32", "conditions": "Serratia marcescens, US32, AGAR"}, "[17]": {"test_system": "E. coli JT 425", "conditions": "Escherichia coli, JT425, AGAR"}, "[18]": {"test_system": "E. coli NCTC 10418"}, "[19]": {"test_system": "P. rettgeri", "conditions": "Providencia rettgeri, AGAR"}, "[20]": {"conditions": "Staphylococcus aureus, AGAR, read-out: MIC"}}, "note": "Where two headings read alike, the source gives them in different places.", "data": [{"smiles": "CCN1CCN(C(=O)NC(C(=O)N[C@@H]2C(=O)N3[C@@H]2SC(C)(C)[C@@H]3C(=O)O)c2csc(N)n2)C(=O)C1=O", "note": "(mixture of isomers) [Example 1, 6-[DL-a-(4-Ethyl-2,3-dioxopiperazin-l-carbonylamino)-2-aminothiazol-4-acetamido]penicillanic acid]", "values": [{"measurement": "MIC", "setting": "[1]", "value": "< 0.02", "unit": "µg/mL"}, {"measurement": "MIC", "setting": "[2]", "value": 0.5, "unit": "µg/mL"}, {"measurement": "MIC", "setting": "[3]; BROTH", "value": 100, "unit": "µg/mL"}, {"measurement": "MIC", "setting": "[3]; [20]", "value": 100, "unit": "µg/mL"}, {"measurement": "MIC", "setting": "[4]", "value": 2.5, "unit": "µg/mL"}, {"measurement": "MIC", "setting": "[5]; AGAR", "value": 10, "unit": "µg/mL"}, {"measurement": "MIC", "setting": "[5]; BROTH", "value": 25, "unit": "µg/mL"}, {"measurement": "MIC", "setting": "[6]", "value": 0.1, "unit": "µg/mL"}, {"measurement": "MIC", "setting": "[7]", "value": "> 100", "unit": "µg/mL"}, {"measurement": "MIC", "setting": "[8]", "value": "< 0.02", "unit": "µg/mL"}, {"measurement": "MIC", "setting": "[9]", "value": 0.5, "unit": "µg/mL"}, {"measurement": "MIC", "setting": "[10]", "value": 0.2, "unit": "µg/mL"}, {"measurement": "MIC", "setting": "[11]", "value": 25, "unit": "µg/mL"}, {"measurement": "MIC", "setting": "[12]", "value": "> 100", "unit": "µg/mL"}, {"measurement": "MIC", "setting": "[13]; NCTC10662, AGAR, Ps. aeruginosa NCTC 10662", "value": 5, "unit": "µg/mL"}, {"measurement": "MIC", "setting": "[13]; NCTC10662, AGAR, Ps. aeruginosa NCTC 10662 10^-2", "value": 2.5, "unit": "µg/mL"}, {"measurement": "MIC", "setting": "[13]; NCTC10662, BROTH, Ps. aeruginosa NCTC 10662", "value": 10, "unit": "µg/mL"}, {"measurement": "MIC", "setting": "[13]; NCTC10662, BROTH, Ps. aeruginosa NCTC 10662 10^-2", "value": 25, "unit": "µg/mL"}, {"measurement": "MIC", "setting": "[14]", "value": "> 100", "unit": "µg/mL"}, {"measurement": "MIC", "setting": "[15]; BROTH", "value": 1.0, "unit": "µg/mL"}, {"measurement": "MIC", "setting": "[15]; [20]", "value": 1, "unit": "µg/mL"}, {"measurement": "MIC", "setting": "[16]", "value": 2.5, "unit": "µg/mL"}, {"measurement": "MIC", "setting": "[17]", "value": 25, "unit": "µg/mL"}, {"measurement": "MIC", "setting": "[18]; BROTH", "value": 1.0, "unit": "µg/mL"}, {"measurement": "MIC", "setting": "[18]; Escherichia coli, NCTC10418, AGAR, read-out: MIC", "value": 1, "unit": "µg/mL"}, {"measurement": "MIC", "setting": "[19]", "value": 2.5, "unit": "µg/mL"}]}]}
